Marks after values point to notes of the source that are not given here.
Columns and labels:
Tcp = assay: Western blot against Tcp; type: cell-based, Vibrio cholerae; details: Supplementary data
HapR = assay: Western blot against HapR; type: cell-based, Vibrio cholerae; details: Supplementary data
CqsS [1] = target: T1, CqsS (Vibrio cholerae serotype O1, UniProt Q9KM66); assay: Vibrio cholerae agonism bioassay; details: for % Response at the maximum concentration (50 μM): bioluminescence at 50 μM, with respect to CAI-1 at 100%; for agonist activity (in words): V. cholerae MM920 reporter, up to 50 μM
CqsS [2] = target: T1, CqsS; assay: Vibrio cholerae antagonism bioassay; details: for antagonist activity (in words): V. cholerae MM920 reporter with 1.0 μM CAI-1, up to 512 μM; for Ratio: IC50 (analog)/IC50 (Ph-CAI-1): using the IC50 of Ph-CAI-1 determined on the same day

T1 sequence (Q9KM66 whole entry, looked up): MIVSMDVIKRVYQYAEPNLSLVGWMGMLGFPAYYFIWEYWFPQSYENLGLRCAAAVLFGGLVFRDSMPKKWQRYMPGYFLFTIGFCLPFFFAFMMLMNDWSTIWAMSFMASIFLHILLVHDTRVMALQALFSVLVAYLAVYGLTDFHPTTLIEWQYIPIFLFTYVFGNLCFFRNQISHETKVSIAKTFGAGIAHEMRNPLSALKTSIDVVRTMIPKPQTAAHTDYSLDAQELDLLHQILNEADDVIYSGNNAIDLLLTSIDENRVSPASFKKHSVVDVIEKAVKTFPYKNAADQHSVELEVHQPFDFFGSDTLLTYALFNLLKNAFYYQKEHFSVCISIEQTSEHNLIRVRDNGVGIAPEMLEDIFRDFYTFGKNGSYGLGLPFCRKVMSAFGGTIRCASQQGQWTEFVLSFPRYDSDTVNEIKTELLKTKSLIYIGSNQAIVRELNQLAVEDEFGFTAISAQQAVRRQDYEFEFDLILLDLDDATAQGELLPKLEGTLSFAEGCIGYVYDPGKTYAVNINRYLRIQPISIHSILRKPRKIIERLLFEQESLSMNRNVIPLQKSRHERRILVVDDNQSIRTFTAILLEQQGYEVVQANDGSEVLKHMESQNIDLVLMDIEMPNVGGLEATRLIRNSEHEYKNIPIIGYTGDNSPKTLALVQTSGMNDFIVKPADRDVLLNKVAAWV

Row | SMILES | agonist activity (in words) (CqsS [1]) | antagonist activity (in words) (CqsS [2]) | also measured
1 | CCCCCCCCCC(=O)[C@@H](O)CC [Compound 1, (S)-3-hydroxytridecan-4-one] | – | – | expression of Tcp (Tcp): significant reduction; expression of HapR (HapR): concomitant expression
2 | CCCCCC(=O)[C@@H](O)CC [Compound A1, (S)-3-Hydroxynonan-4-one] | – | – | % Response at the maximum concentration (50 μM) (CqsS [1]): 27 ^e %
3 | CCCCCCC(=O)[C@@H](O)CC [Compound A2, (S)-3-Hydroxydecan-4-one] | essentially inactive | – | % Response at the maximum concentration (50 μM) (CqsS [1]): 59 ^e %
4 | CCCCCCCCCCCCC(=O)[C@@H](O)CC [Compound A9, (S)-3-Hydroxyhexadecan-4-one] | essentially inactive | – | –
5 | CCCCCCCCCC(=O)C(Cl)CC (stereo not shown) [Compound B8, Cl-CAI-1] | inactive | – | –
6 | CCCCCCCCCC(=O)C(O)C(C)(C)C (stereo not shown) [Compound C4, 3-Hydroxy-2,2-dimethyltridecan-4-one] | inactive | – | –
7 | CCCCCCCCCC(=O)C(O)c1ccc(C)c(C)c1 (stereo not shown) [Compound C9, 1-Hydroxy-1-(3,4-dimethylphenyl)undecan-2-one] | – | abolishes activity | –
8 | CCCCCCCCCC(=O)C(O)c1ccc(CC)cc1 (stereo not shown) [Compound C10, 1-(4-Ethylphenyl)-1-hydroxyundecan-2-one] | – | inactive | IC50 (CqsS [2]): > 500 µM; Ratio: IC50 (analog)/IC50 (Ph-CAI-1) (CqsS [2]): >9
9 | CCCCCCCCCC(=O)C(O)c1ccc(CCC)cc1 (stereo not shown) [Compound C11, 1-Hydroxy-1-(4-propylphenyl)-undecan-2-one] | – | inactive | IC50 (CqsS [2]): > 500 µM; Ratio: IC50 (analog)/IC50 (Ph-CAI-1) (CqsS [2]): >9
10 | CCCCCCCCCC(=O)C(O)c1ccc(Br)cc1 (stereo not shown) [Compound C28, 1-(4-Bromophenyl)-1-hydroxyundecan-2-one] | – | weak antagonist | –

From paper PMC3673537 (Bioorganic & medicinal chemistry, 2011)
